This test deals with T1, Recombinant human cathepsin K (Homo sapiens, UniProt P43235).
T1 construct: made in house
T1 sequence (P43235 115-329): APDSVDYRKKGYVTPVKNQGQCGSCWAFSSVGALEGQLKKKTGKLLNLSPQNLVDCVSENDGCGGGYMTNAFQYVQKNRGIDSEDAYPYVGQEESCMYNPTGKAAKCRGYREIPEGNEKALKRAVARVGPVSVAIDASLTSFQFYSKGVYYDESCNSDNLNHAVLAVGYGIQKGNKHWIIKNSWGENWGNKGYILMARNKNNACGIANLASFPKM
In words: Collagenolytic assays (calf skin collagen, SDS-PAGE). Format: biochemical. Details: key to collagen: qualitative value: qualitative values of 1 and 0 were used to signify inhibition and lack thereof, respectively; qualitative values of 1 and 0 were used to signify inhibition and lack thereof, respectively; a value of -1 was used to describe the concentration-dependent roles of glycosaminoglycans. Here is the method: The use of synthetic substrates is practical for the determination of the mechanisms of modification. […] Therefore, all modifiers were also tested with two macromolecular substrates, calf skin collagen and azocasein. The collagenolytic activity was tested quantitatively by following the fragmentation of the characteristic type I collagen pattern into smaller products on SDS-PAGE after incubation of the samples with cathepsin K in the presence and absence of modifiers.
Soluble calf skin collagen (Worthington Biochemical Corporation, USA) was diluted in 100 mM sodium acetate buffer pH 5.50 containing 1 mM EDTA and 5 mM DTT to a final concentration of 0.5 mg/ml. Experiments were started by addition of cathepsin K (final enzyme concentration 0.6 µM) to the reaction mixture containing collagen and increasing concentrations of modifier. All assays were performed at 28°C with shaking on an Eppendorf Thermomixer Comfort. Samples were incubated for 2 hours and the reactions then blocked by addition of E-64 to a final concentration of 1 µM. 10 µg of digested collagen were analyzed by SDS-PAGE on 8% polyacrylamide gels and protein bands visualized by Coomassie Brilliant Blue R-250 staining.

Structures are written as SMILES. Like-named read-outs stand apart in the source and are kept apart here.

On to `OC(c1cc(-c2ccc(C(F)(F)F)cc2)nc(C(F)(F)F)c1)C1CCCCN1` (stereo not shown) [Compound 2, Piperidin-2-yl-[2-(trifluoromethyl)-6-[4-(trifluoromethyl)phenyl]pyridin-4-yl] methanol], for which the “Effect on degradation of calf skin collagen” value (SDS-PAGE, increasing concentrations of modifier) was “concentration-dependent inhibitory effect”. For the setting “activity modification matrix”, the “collagen: qualitative value” is recorded as 1. Moreover, the IC50 is approximately 500 µM (degradation of calf skin collagen, read-out: IC 50 (estimated)) and 500 µM (substrate calf skin collagen 0.5 mg/ml, 0.6 µM cathepsin K, 2 hours 28°C, pH 5.50, estimated, read-out: IC 50).
